Where a SMILES comes first, the peptide text is derived from it. Bridges are numbered along the chain shown (N, C = ends).
Columns and labels:
[1] = biological target: T1, C1a receptor (C1a-type calcitonin receptor) (Rattus norvegicus, UniProt P32214); test: C1a/293 competitive binding, displacement of [125I]-human calcitonin (Example C); settings: HEK293 plasma membranes (C1a/293), [125I]-human calcitonin 20 pM
T1 construct: expressed in transfected cells
T1 sequence (P32214 25-479 isoform P32214-2 limits assumed): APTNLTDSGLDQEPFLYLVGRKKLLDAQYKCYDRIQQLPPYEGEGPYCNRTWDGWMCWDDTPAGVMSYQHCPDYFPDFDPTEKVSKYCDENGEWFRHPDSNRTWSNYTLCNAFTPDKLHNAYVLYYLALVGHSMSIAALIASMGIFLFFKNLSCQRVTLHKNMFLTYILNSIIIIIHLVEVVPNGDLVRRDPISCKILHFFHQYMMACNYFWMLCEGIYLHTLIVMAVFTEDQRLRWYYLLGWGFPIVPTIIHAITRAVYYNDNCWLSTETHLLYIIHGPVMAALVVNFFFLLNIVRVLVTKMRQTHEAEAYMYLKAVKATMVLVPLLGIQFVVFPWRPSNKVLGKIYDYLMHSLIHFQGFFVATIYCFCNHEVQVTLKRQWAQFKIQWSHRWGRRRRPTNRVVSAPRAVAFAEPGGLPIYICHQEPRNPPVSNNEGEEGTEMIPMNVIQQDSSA
Procedure: Peptide compounds of the present invention may be evaluated for binding to the C1a receptor using the procedures described in Example C. The C1a receptor is the predominant mammalian calcitonin receptor subtype. C1a pcDNA construction and transfection were carried out as previously described (Albrandt et al. 1993, FEBS Letters, 325:225-232). HEK293 cell lines showing stable expression of the rat C1a-type calcitonin receptor (C1a/293) or the human C1a-type calcitonin receptor (1154/293) were selected by G418 resistance and limiting dilution culture methods. Plasma membranes were collected from homogenized HEK293 cells and used in the receptor binding assay. Individual test peptides at concentrations spanning 6 log units starting at around 10^-6 M were examined for their ability to displace [^125 I]-human calcitonin from the plasma membrane preparation using a 96-well microtiter plate format and scintillation counting with a Wallac LKB Beta plate counter. Competitive binding curves were constructed. Non-specific binding was measured in the presence of 100 nM calcitonin. Peptide potencies (IC50 's for competitive binding) were calculated by non-linear regression using Prism™ (version 2.01, GraphPAD Software, San Diego, Calif.).
C1a/293 Competitive Binding Studies:
Compounds were evaluated for competition in binding to the C1a receptor as follows:
(§1) Reference peptides used in these studies were purchased from Bachem (Torrance, Calif.). All other chemicals were of the highest commercial grade. [^35 S]-GTPγS was purchased from NEN Life Science Products, Inc., Pittsburgh, Pa. [^125 I]-human calcitonin was purchased from Amersham Pharmacia Biotech, Inc., Piscataway, N.J.
(§2) Methods for C1a pcDNA construction and transfection have been previously described (Albrandt, et al. 1993). HEK293 cell lines stably expressing the rat C1a-type calcitonin receptor (C1a/293) or the human C1a-type calcitonin receptor (1154/293) were selected by G418 resistance and limiting dilution culture methods.
(§3) Confluent cells were detached from tissue culture flasks by incubation with 5 mM EDTA in PBS. Cells were homogenized in ice-cold 20 mM HEPES, pH 7.4 with a Polytron homogenizer. Plasma membranes were collected using three cycles of washing in fresh buffer followed by centrifugation for 15 minutes at 48,000×g. The final membrane pellet was resuspended in 20 mM HEPES buffer containing 0.2 mM phenylmethylsulfonyl fluoride (PMSF) and stored at -70° C.
Assay buffer contained 5 μg/mL bestatin, 1 μg/mL phosphoramidon, 1 mg/mL bovine serum albumin (fraction V), 1 mg/mL bacitracin, 1 mM MgCl2, and 20 mM HEPES, pH 7.4. Membranes (2-5 μg membrane protein/well), [^125 I]-human calcitonin (20 pM), and peptides were combined in 200 μL buffer in 96-well microtiter plates. After a 60 minute incubation at room temperature, well contents were harvested onto polyethyleneimine-treated GF/B glass fiber pads using a Tomtec Mach II plate harvestor (Hamden, Conn.). Dried pads were combined with scintillant and counted on a Wallac LKB Beta Plate scintillation counter (Gaithersburg, Md.). For competitive binding curves, samples were run in duplicate over a 6 log concentration range starting at 10^-6 or 10^-7 M. Non-specific binding was measured in the presence of 100 nM human calcitonin.

[2] = biological target: T1, C1a receptor (C1a-type calcitonin receptor); test: biochemical; settings: HEK293 plasma membranes, [35S]-GTPγS 200 pM; read-out: ED50 (nM) Example B (C1a GTPγS)
Text: Peptide compounds of the present invention may be evaluated for agonist activity using the procedures described in Example B. The plasma membrane preparation of a 7-transmembrane-G-protein coupled receptor (GPCR) contains not only the receptor but also the G-proteins which constitute the first step in the intracellular signal transduction process when the receptor is activated by an agonist ligand. […] Agonist activation of a GPCR is accompanied by displacement of GDP by GTP from this site. Thus, measurement of the binding of a radiolabelled ligand, namely [^35 S]-GTPγS, for this binding site constitutes a measure of agonist potency for a given ligand. For agonism at the C1a receptor, a similar membrane preparation to that described below for the C1a binding studies is used. C1a pcDNA construction and transfection were carried out as previously described (Albrandt et al. 1993, FEBS Letters, 325:225-232). HEK293 cell lines showing stable expression of the rat C1a-type calcitonin receptor (C1a/293) or the human C1a-type calcitonin receptor (1154/293) were selected by G418 resistance and limiting dilution culture methods. Plasma membranes were collected from homogenized HEK293 cells and used in the [^35 S]-GTPγS assay. Individual test peptides at concentrations spanning 6 log units starting at around […] were examined for their ability to bind [^35 S]-GTPγS. Maximum agonist-specific binding was measured in the presence of 1 μM human calcitonin, constitutive binding was measured in the presence of buffer alone. Peptide potencies (EC50 's for concentration response curves) were calculated by non-linear regression using Prism™ (version 2.01, GraphPAD Software, San Diego, Calif.).
[^35 S]-GTPγS C1a Agonist Studies
Evaluation of the agonist activity of compounds versus the C1a receptor was carried out as follows:
as §1
as §2, with “1993, FEBS Letters, 325:225-232).” for “1993).”
as §3
Assay buffer contained 1 μM GDP, 1 mM EDTA, 5 mM MgCl2, 20 mM Hepes, and 150 mM NaCl, pH 7.4. Membranes (7.5 μg membrane protein/well), [^35 S]-GTPγS (200 pM), and peptides were combined in 200 μL buffer in 96-well microtiter plates. After a 75 minute incubation at room temperature, well contents were harvested onto GF/B glass fiber pads using a Tomtec Mach II plate harvestor (Hamden, Conn.). Dried pads were combined with scintillant and counted on a Wallac LKB Beta Plate scintillation counter. For concentration response curves, samples were run in duplicate over a 6 log concentration range starting at 10^-6 M or 10^-7 M. Maximum agonist-specific binding was measured in the presence of 1 μM human calcitonin, constitutive binding was measured in the presence of buffer alone.
Peptide potencies (1C50 's for competitive binding, and EC50 's for concentration response curves) were calculated by non-linear regression using Prism (version 2.01, GraphPAD Software, San Diego, Calif.).

In the case of CC(C)C[C@H](NC(=O)[C@H](CCCNC(=N)N)NC(=O)[C@H](CCC(N)=O)NC(=O)[C@@H](NC(=O)[C@H](C)NC(=O)[C@@H]1CSSC[C@H](NC(=O)[C@@H](N)CCCCN)C(=O)N[C@@H](CC(N)=O)C(=O)N[C@@H]([C@@H](C)O)C(=O)N[C@@H](C)C(=O)N[C@@H]([C@@H](C)O)C(=O)N1)[C@@H](C)O)C(=O)N[C@@H](C)C(=O)N[C@@H](CC(N)=O)C(=O)N[C@@H](Cc1ccccc1)C(=O)N[C@@H](CC(C)C)C(=O)N[C@H](C(=O)N[C@@H](C)C(=O)N[C@@H](CO)C(=O)N[C@@H](CO)C(=O)NCC(=O)N[C@@H](Cc1ccc(O)cc1)C(N)=O)C(C)C [Example 12] (H-KCNTATCATQRLANFLVASSGY-NH2; disulfide 2-7), the IC50 [1] is reported as 10 nM and the EC50 [2] is reported as 8 nM.

CC(C)C[C@H](NC(=O)[C@H](CCCNC(=N)N)NC(=O)[C@H](CCC(N)=O)NC(=O)[C@@H](NC(=O)[C@H](C)NC(=O)[C@@H]1CSSC[C@H](N)C(=O)N[C@@H](CC(N)=O)C(=O)N[C@@H]([C@@H](C)O)C(=O)N[C@@H](C)C(=O)N[C@@H]([C@@H](C)O)C(=O)N1)[C@@H](C)O)C(=O)N[C@@H](C)C(=O)N[C@@H](CC(N)=O)C(=O)N[C@@H](Cc1ccccc1)C(=O)N[C@@H](CC(C)C)C(=O)N[C@H](C(=O)N[C@@H](CCCNC(=N)N)C(=O)N[C@@H](CO)C(=O)N[C@@H](CO)C(=O)NCC(=O)N[C@@H](Cc1ccc(O)cc1)C(N)=O)C(C)C [Example 13] (H-CNTATCATQRLANFLVRSSGY-NH2; disulfide 1-6) was tested, and the IC50 [1] was 12 nM and the EC50 [2] was 19 nM.

CC(C)C[C@H](NC(=O)[C@H](CCCNC(=N)N)NC(=O)[C@H](CCC(N)=O)NC(=O)[C@@H](NC(=O)[C@H](C)NC(=O)[C@@H]1CSSC[C@H](NC(=O)[C@@H](N)CCCCN)C(=O)N[C@@H](CC(N)=O)C(=O)N[C@@H]([C@@H](C)O)C(=O)N[C@@H](C)C(=O)N[C@@H]([C@@H](C)O)C(=O)N1)[C@@H](C)O)C(=O)N[C@@H](C)C(=O)N[C@@H](CC(N)=O)C(=O)N[C@@H](Cc1ccccc1)C(=O)N[C@@H](CC(C)C)C(=O)N[C@H](C(=O)N[C@@H](CCCNC(=N)N)C(=O)N[C@@H](CO)C(=O)N[C@@H](CO)C(=O)NCC(=O)N[C@@H](Cc1ccc(O)cc1)C(N)=O)C(C)C [Example 14] (H-KCNTATCATQRLANFLVRSSGY-NH2; disulfide 2-7) was tested, and the IC50 [1] was 18 nM and the EC50 [2] was 90 nM.

With CC(C)C[C@H](NC(=O)[C@H](CCCNC(=N)N)NC(=O)[C@H](CCC(N)=O)NC(=O)[C@@H](NC(=O)[C@H](C)NC(=O)[C@@H]1CSSC[C@H](NC(=O)[C@@H](N)CCCCN)C(=O)N[C@@H](CC(N)=O)C(=O)N[C@@H]([C@@H](C)O)C(=O)N[C@@H](C)C(=O)N[C@@H]([C@@H](C)O)C(=O)N1)[C@@H](C)O)C(=O)N[C@@H](C)C(=O)N[C@@H](CC(N)=O)C(=O)N[C@@H](Cc1ccccc1)C(=O)N[C@@H](CC(C)C)C(=O)N[C@H](C(=O)N[C@@H](CCCNC(=N)N)C(=O)N[C@@H](CO)C(=O)N[C@@H](C)C(=O)NCC(=O)N[C@@H](Cc1ccc(O)cc1)C(N)=O)C(C)C [Example 15] (H-KCNTATCATQRLANFLVRSAGY-NH2; disulfide 2-7) the IC50 [1] was 18 nM and the EC50 [2] was 21 nM.

CC(C)C[C@H](NC(=O)[C@H](Cc1ccccc1)NC(=O)[C@H](CC(N)=O)NC(=O)[C@H](C)NC(=O)[C@H](CC(C)C)NC(=O)[C@H](CCCNC(=N)N)NC(=O)[C@H](CCC(N)=O)NC(=O)[C@@H](NC(=O)[C@H](C)NC(=O)[C@@H]1CSSC[C@H](NC(=O)[C@@H](N)CCCCN)C(=O)N[C@@H](CC(N)=O)C(=O)N[C@@H]([C@@H](C)O)C(=O)N[C@@H](C)C(=O)N[C@@H]([C@@H](C)O)C(=O)N1)[C@@H](C)O)C(=O)N[C@@H](C)C(=O)N[C@@H](CCCNC(=N)N)C(=O)N[C@@H](CO)C(=O)N[C@@H](CO)C(=O)NCC(=O)N[C@@H](Cc1ccc(O)cc1)C(N)=O [Example 16] (H-KCNTATCATQRLANFLARSSGY-NH2; disulfide 2-7) was tested, and the IC50 [1] was 20 nM and the EC50 [2] was 1.4 nM.

Reference: patent publication US6087334A, “Anti-diabetic peptides” (Amylin Pharmaceuticals, Inc., priority 1998, dated 2000)
